In ChEMBL document CHEMBL4265952, “One-pot, multi-component synthesis and structure-activity relationships of peptoid-based histone deacetylase (HDAC) inhibitors targeting malaria parasites” (Eur J Med Chem, 2018):

Legend:
[1] = tested on: Plasmodium falciparum; experiment: Antiplasmodial activity against Plasmodium falciparum
[2] = tested on: HEK293; experiment: Cytotoxicity against HEK293 cells after 48 hrs by resazurin dye based assay; format: ADME, cell-based; details: Homo sapiens, HEK293, 48 h
[3] = tested on: NFF; format: ADME, cell-based; details: Homo sapiens, 72 h
[4] = tested on: Plasmodium falciparum; format: functional, organism-based; details: Dd2
[5] = tested on: Plasmodium falciparum; format: functional, organism-based; details: 3D7
[6] = target: Histone deacetylase 1 (Homo sapiens, UniProt Q13547); experiment: Inhibition of recombinant full length human C-terminal His/FLAG tagged HDAC1 expressed in baculovirus infected Sf9 insect cells using ZMAL as substrate measured after 90 mins by fluorescence assay
[7] = target: T1, Protein deacetylase HDAC6 (Homo sapiens, UniProt Q9UBN7); experiment: Inhibition of recombinant full length human N-terminal GST-tagged HDAC6 expressed in baculovirus infected Sf9 insect cells using ZMAL as substrate measured after 90 mins by fluorescence assay
T1 sequence (Q9UBN7 whole entry): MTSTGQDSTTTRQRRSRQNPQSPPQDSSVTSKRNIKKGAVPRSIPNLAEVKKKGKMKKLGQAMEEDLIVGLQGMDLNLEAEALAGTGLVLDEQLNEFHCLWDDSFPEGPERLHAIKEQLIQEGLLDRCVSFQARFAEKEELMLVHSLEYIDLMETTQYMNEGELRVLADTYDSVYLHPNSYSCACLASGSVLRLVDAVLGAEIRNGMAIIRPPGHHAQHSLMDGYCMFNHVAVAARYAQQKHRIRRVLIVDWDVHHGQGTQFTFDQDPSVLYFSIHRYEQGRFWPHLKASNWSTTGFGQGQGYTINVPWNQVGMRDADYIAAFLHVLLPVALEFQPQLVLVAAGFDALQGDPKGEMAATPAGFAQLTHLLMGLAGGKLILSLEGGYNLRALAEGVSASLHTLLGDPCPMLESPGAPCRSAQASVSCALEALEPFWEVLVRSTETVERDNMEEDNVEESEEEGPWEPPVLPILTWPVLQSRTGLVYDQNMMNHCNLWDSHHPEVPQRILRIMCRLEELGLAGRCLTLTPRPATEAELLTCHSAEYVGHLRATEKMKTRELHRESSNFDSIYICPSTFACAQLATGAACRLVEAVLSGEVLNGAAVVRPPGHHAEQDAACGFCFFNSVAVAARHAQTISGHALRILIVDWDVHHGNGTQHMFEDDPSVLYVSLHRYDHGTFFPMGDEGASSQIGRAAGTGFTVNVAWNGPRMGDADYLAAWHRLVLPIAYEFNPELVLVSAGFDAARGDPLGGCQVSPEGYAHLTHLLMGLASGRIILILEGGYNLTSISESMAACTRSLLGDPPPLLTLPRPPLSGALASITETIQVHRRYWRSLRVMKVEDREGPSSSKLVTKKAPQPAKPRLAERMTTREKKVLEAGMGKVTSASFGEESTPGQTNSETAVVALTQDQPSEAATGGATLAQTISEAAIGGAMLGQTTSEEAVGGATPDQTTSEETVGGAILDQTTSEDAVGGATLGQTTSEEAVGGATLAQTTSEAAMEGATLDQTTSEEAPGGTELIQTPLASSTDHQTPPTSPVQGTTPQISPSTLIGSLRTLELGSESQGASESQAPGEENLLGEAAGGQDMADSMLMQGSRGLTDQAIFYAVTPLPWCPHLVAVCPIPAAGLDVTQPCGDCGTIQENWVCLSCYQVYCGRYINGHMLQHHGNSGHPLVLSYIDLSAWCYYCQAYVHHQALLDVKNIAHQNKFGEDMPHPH

[8] = tested on: NFF; experiment: cells; details: Homo sapiens
Description: Cytotoxicity against human NFF cells

[9] = tested on: Plasmodium falciparum; experiment: microbe, parasite or virus in culture; details: Dd2, 3 h
Description: Antiplasmodial activity against multidrug-resistant asexual ring stage Plasmodium falciparum Dd2 infected in human erythrocytes by [3H]-hypoxanthine incorporation assay

[10] = in vitro; details: human
Description: Selectivity index, ratio of IC50 for human NFF cells to IC50 for multidrug-resistant asexual ring stage Plasmodium falciparum Dd2 infected in human erythrocytes

[11] = in vitro; details: human; remark: listed apart in the source
Description: Selectivity index, ratio of IC50 for human NFF cells to IC50 for drug-sensitive asexual ring stage Plasmodium falciparum 3D7 infected in human erythrocytes

[12] = tested on: Plasmodium falciparum; experiment: microbe, parasite or virus in culture; details: 3D7, 3 h
Description: Antiplasmodial activity against drug-sensitive asexual ring stage Plasmodium falciparum 3D7 infected in human erythrocytes by [3H]-hypoxanthine incorporation assay

[13] = tested on: Plasmodium falciparum; experiment: Gametocytocidal activity against synchronized Plasmodium falciparum NF54 mature stage 5 gametocytes after 48 hrs by ATP bioluminescence assay; format: functional, organism-based; details: NF54, 48 h
[14] = tested on: Plasmodium falciparum; experiment: Gametocytocidal activity against transgenic GFP-fused Plasmodium falciparum NF54 late stage gametocytes after 72 hrs by Mitotracker Red CMH2XRos staining based imaging method; format: functional, organism-based; details: NF54, 72 h
[15] = tested on: Plasmodium falciparum; experiment: Gametocytocidal activity against transgenic GFP-fused Plasmodium falciparum NF54 early stage gametocytes after 72 hrs by Mitotracker Red CMH2XRos staining based imaging method; format: functional, organism-based; details: NF54, 72 h
[16] = tested on: Plasmodium falciparum; experiment: Gametocytocidal activity against transgenic GFP-fused Plasmodium falciparum NF54 late stage gametocytes at 40 uM after 72 hrs by Mitotracker Red CMH2XRos staining based imaging method relative to control; format: functional
[17] = tested on: Plasmodium berghei; experiment: Antiplasmodial activity against exo-erythrocytic stage of GFP-Luc-fused Plasmodium berghei ANKA infected in human HepG2 cells after 48 hrs by bioluminescence assay; details: HepG2, 48 h
[18] = Cytotoxicity against human HepG2A16 cells expressing GFP-fused CD81 after 48 hrs by bioluminescence assay; details: HepG2A16, 48 h
[19] = Selectivity index, ratio of IC50 for human HepG2A16 cells to IC50 for exo-erythrocytic stage of GFP-Luc-fused Plasmodium berghei ANKA infected in human HepG2 cells

Chain of Histone deacetylase 1 (Q13547 whole entry): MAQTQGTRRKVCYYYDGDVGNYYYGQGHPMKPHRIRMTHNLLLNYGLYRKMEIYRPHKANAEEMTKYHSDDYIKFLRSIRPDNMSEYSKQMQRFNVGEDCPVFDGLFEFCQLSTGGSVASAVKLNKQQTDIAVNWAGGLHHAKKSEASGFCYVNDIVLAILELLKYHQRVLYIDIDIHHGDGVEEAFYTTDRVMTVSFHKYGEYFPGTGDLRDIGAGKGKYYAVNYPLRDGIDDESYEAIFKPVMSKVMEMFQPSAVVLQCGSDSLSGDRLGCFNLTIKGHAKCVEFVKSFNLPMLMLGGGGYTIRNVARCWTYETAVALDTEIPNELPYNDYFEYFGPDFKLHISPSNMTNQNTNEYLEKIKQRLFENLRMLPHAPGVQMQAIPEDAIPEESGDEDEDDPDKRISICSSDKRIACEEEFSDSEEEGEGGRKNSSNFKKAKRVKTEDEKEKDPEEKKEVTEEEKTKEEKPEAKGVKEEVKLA

Q: For `CC(/C=C/C(=O)NO)=C\[C@@H](C)C(=O)c1ccc(N(C)C)cc1` [TRICHOSTATIN], which IC50 [1] is on record?
A: The IC50 was 8 to 11 nM.

Q: For `O=C(/C=C/c1cccc(S(=O)(=O)Nc2ccccc2)c1)NO` [BELINOSTAT], which IC50 [2] is on record?
A: The IC50 was 1420 to 2370 nM.

Q: And the IC50 [3]?
A: The IC50 was 1420 to 2370 nM.

Q: And the IC50 [4]?
A: The IC50 was 60 to 130 nM.

Q: What about the IC50 [5] of the same compound?
A: Its IC50 is 60 to 130 nM.

Q: Which IC50 [6] does the source give for `CC(C)c1ccc(C(=O)N(CC(=O)NC2CCCCC2)Cc2ccc(C(=O)NO)cc2)cc1` here?
A: Its IC50 is 86 nM.

Q: What about the IC50 [7] of the same compound?
A: Its IC50 is 64 nM.

Q: With `Cc1ccc(NC(=O)CN(Cc2ccc(C(=O)NO)cc2)C(=O)c2cccc3ccccc23)cc1` as the compound, how does the IC50 [8] read?
A: Its IC50 is over 10000 nM.

Q: What about the IC50 [9] of the same compound?
A: The IC50 was 33 nM.

Q: And the selectivity ratio [10]?
A: Its selectivity ratio is 256 to 303.

Q: And the selectivity ratio [11]?
A: Its selectivity ratio is 256 to 303.

Q: And the IC50 [12]?
A: Its IC50 is 39 nM.

Q: Which IC50 [13] does the source give for `CC[C@H](C)[C@H](NC(=O)[C@H]([C@@H](C)CC)N(C)C(C)=O)C(=O)N[C@H](C(=O)N[C@@H](CC(C)C)C(=O)[C@@]1(C)CO1)[C@@H](C)O` [EPOXOMYCIN] here?
A: The IC50 was 7 nM.

Q: With `COc1ccc2nc3cc(Cl)ccc3c(Nc3cc(CN4CCCC4)c(O)c(CN4CCCC4)c3)c2n1` [PYRONARIDINE] as the compound, how does the IC50 [14] read?
A: Its IC50 is 1710 nM.

Q: What about the IC50 [15] of the same compound?
A: Its IC50 is 29 nM.

Q: With `Cc1ccc(C(=O)N(CC(=O)NC2CCCCC2)Cc2ccc(C(=O)NO)cc2)cc1C` as the compound, how does the IC50 [6] read?
A: The IC50 was 304 nM.

Q: For `Cc1ccc(NC(=O)CN(Cc2ccc(C(=O)NO)cc2)C(=O)c2ccc(N(C)C)cc2)cc1`, which IC50 [6] is on record?
A: The IC50 was 80 nM.

Q: With `Cc1ccc(C(=O)N(CC(=O)NC(C)(C)C)Cc2ccc(C(=O)NO)cc2)cc1C` as the compound, how does the IC50 [6] read?
A: The IC50 was 428 nM.

Q: And the IC50 [7]?
A: The IC50 was 57 nM.

Q: And the Activity [16]?
A: Its Activity is 92%.

Q: With `Cc1[nH]c2ccccc2c1CCNCc1ccc(/C=C/C(=O)NO)cc1` [PANOBINOSTAT] as the compound, how does the IC50 [2] read?
A: The IC50 was 70 to 180 nM.

Q: What about the IC50 [3] of the same compound?
A: Its IC50 is 70 to 180 nM.

Q: What about the IC50 [4] of the same compound?
A: The IC50 was 10 to 30 nM.

Q: What about the IC50 [5] of the same compound?
A: Its IC50 is 10 to 30 nM.

Q: Which results are given for `Cc1ccc(NC(=O)CN(Cc2ccc(C(=O)NO)cc2)C(=O)c2cc(C)cc(C)c2)cc1`?
A: IC50 [8]: > 10000 nM; IC50 [14]: 7280 nM; IC50 [15]: 7600 nM; IC50 [9]: 27 nM; IC50 [13]: 10100 nM; IC50 [17]: 5550 nM; IC50 [18]: 21400 nM

Q: With `O=C(CN(Cc1ccc(C(=O)NO)cc1)C(=O)c1cccc2ccccc12)NC1CCCCC1` as the compound, how does the IC50 [6] read?
A: Its IC50 is 552 nM.

Q: Which selectivity ratio [19] does the source give for `O=C1C(O)=C([C@H]2CC[C@H](c3ccc(Cl)cc3)CC2)C(=O)c2ccccc21` [ATOVAQUONE] here?
A: The selectivity ratio was over 35000.

Q: What about the IC50 [17] of the same compound?
A: The IC50 was 0.014 nM.

Q: And the IC50 [18]?
A: Its IC50 is over 500 nM.

Q: With `CN(C)c1ccc2nc3ccc(N(C)C)cc3[s+]c2c1` [METHYLENE BLUE ANHYDROUS] as the compound, how does the IC50 [13] read?
A: The IC50 was 480 nM.

Q: For `CCCCNC(=O)CN(Cc1ccc(C(=O)NO)cc1)C(=O)c1ccc(N(C)C)cc1`, which IC50 [6] is on record?
A: Its IC50 is 40 nM.

Q: And the IC50 [7]?
A: Its IC50 is 35 nM.
